Data published in PMC9007595 (Molecular microbiology, 2020).

T1: Mtb HtpG (Mycobacterium tuberculosis, UniProt P9WMJ7)
T1 sequence (P9WMJ7 1-647): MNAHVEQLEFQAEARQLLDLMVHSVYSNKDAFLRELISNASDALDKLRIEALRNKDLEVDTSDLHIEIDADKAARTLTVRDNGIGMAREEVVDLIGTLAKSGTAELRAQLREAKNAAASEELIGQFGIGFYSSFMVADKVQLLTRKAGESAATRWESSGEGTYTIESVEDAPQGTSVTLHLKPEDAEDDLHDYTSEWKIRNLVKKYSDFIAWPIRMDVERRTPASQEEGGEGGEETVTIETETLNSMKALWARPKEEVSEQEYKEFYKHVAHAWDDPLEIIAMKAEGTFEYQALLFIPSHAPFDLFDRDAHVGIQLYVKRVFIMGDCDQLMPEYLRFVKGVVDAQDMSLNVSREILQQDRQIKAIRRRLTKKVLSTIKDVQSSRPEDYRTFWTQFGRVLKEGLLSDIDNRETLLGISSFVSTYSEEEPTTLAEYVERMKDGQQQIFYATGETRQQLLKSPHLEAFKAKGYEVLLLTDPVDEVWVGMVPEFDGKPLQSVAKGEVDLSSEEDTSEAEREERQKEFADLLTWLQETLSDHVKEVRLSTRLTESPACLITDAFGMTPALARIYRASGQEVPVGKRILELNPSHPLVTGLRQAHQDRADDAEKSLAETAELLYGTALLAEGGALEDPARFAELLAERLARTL

B1: purified Mtb HtpG (size exclusion chromatography) (natural protein)
chain: T1 sequence (P9WMJ7 1-647)

Columns and labels:
[1] = biological target: yeast Hsp90 (S. cerevisiae Hsp82) (Saccharomyces cerevisiae, UniProt P02829); test: ATPase activity assay with purified protein; assay type: biochemical
[2] = biological target: T1, Mtb HtpG; test: […]; assay type: binding
[3] = biological target: the molecule itself; test: SEC

Chain of yeast Hsp90 (S. cerevisiae Hsp82) (P02829 whole entry): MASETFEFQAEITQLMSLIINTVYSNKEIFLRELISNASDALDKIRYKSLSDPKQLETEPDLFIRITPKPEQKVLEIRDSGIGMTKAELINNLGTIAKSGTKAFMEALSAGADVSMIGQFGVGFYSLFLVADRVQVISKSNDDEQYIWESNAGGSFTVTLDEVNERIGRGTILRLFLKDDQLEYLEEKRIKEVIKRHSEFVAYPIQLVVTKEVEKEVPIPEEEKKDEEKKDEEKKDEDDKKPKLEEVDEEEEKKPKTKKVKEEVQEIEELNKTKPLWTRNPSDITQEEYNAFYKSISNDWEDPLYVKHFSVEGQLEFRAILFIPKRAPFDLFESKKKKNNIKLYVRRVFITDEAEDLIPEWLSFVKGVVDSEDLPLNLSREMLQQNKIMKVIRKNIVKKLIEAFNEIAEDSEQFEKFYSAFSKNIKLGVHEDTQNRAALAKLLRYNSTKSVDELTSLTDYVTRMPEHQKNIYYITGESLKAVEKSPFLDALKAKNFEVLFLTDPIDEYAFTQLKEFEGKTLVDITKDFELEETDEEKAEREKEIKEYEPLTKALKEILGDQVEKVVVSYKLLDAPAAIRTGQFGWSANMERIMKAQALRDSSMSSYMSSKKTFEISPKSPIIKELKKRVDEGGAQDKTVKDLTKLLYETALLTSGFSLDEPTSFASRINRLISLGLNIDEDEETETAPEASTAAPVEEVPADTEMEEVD

| Molecule | ATPase activity assay with purified protein (Figure S19) [1] | Kd [2] [µM] | binding result [3] |
| --- | --- | --- | --- |
| COC1=C2C[C@@H](C)C[C@H](OC)[C@H](O)[C@@H](C)/C=C(\C)[C@H](OC(N)=O)[C@@H](OC)/C=C\C=C(/C)C(=O)NC(=CC1=O)C2=O [GA, geldanamycin] | Both proteins exhibited low ATPase activity that was inhibited by GA (Figure S19) | ~15.7 |  |
| B1 |  |  | binds |
